Laboratory results from patent US20070117182A1, “Nucleic acids conferring transcriptional responsiveness on the RANKL gene promoter and uses thereof” (Wisconsin Alumni Research Foundation, priority 2005, published 2007).

Experiments:
[1] = test system: RANKL gene upstream regions D1-D5; experiment: ChIP analysis of transcription factor binding to the RANKL gene in ST2 cells; assay type: cell-based, mouse; settings: 6 hours
Protocol: FIG. 4. Confirmation of ChIP/chip data using ChIP. A) Linear arrangement of RANKL locus re-oriented 5′ to 3′ (left to right) indicating the positions of D5 to D1, P2, and P1/TSS. Designation of primer sets used for detection in ChIP is indicated. B) ST2 cells were treated with either vehicle or 1,25(OH)2D3 and then subjected to ChIP using antibodies to VDR, RXR or IgG. Precipitated DNA was evaluated using the primer sets identified in A.
FIG. 5. […] ST2 cells were treated with the above hormones and after 6 hours subjected to ChIP analysis using antibodies to VDR, RXR, GR, C/EBP, β, RNA pol II, and IgG. Precipitated DNA was evaluated for enrichment of the indicated regions of the RANKL gene.
FIG. 10. ChIP analysis of transcription factor binding to RL D5, the TSS and intervening regions of the RANKL locus in response to 1,25(OH)2D3, forskolin and oncostatin M (OSM). ST2 cells were treated for 6 hr with the indicated inducing agents and then subjected to ChIP analysis using antibodies to the indicated factors. Precipitated DNA was analyzed by PCR for enrichment of IS7, D5, IS6 and the TSS of the RANKL gene locus. See text for details of results.
The isolated DNA was then evaluated by PCR using primers as depicted in the diagram seen in FIG. 4a which were designed to amplify small DNA segments within the 5 regions as well as segments located at intervening sites (IS) outside the five regions.
The inventors hypothesized that GC's might perhaps enhance VDR binding to RANKL regulatory regions. […] The inventors focused on the RL-CCL region (D5) and amplified the precipitated DNA using primers to this region of the gene as well as to D4, D3 and TSS and intervening regions. […] The inventors also explored the possibility that C/EBPbeta might similarly participate in the RANKL activation process. C/EBPbeta plays a significant role in the regulation of osteoblastic genes, and is found associated with both 1,25(OH)2D3 and GC target genes.
In addition to 1,25(OH)2D3 and GCs, RANKL expression is also known to be modulated by such factors as PTH, PGE2, the gp130-activating cytokines IL-6 and OSM, as well as IL-1beta and TNFalpha. […] Forskolin was used as substitute for PTH, however, as ST2 cells are deficient in PTH receptor (PTHR). Both PTH/forskolin and PGE2 are known to induce RANKL gene expression via CREB whereas OSM functions via Stat3. […] The inventors therefore explored the possibility that the RL-CCL might represent a focal target for these inducers via either CREB or Stat3 in the RANKL gene locus. ST2 cells were treated with either vehicle, 1,25(OH)2D3, forskolin or OSM for a 6 hour period and then subjected to a ChIP analysis using antibodies to VDR, C/EBPbeta, CREB, phospho-CREB, ATF-2, ATF-4, Stat3, RNA pol II and control IgG. Isolated DNA was then subjected to amplification using primers corresponding to the D5 region (RL-CCL) of the RANKL gene. As controls, the inventors also assessed the extent to which the immunoprecipitations led to the enrichment of DNA at sites surrounding the D5 region of the RANKL gene.

[2] = test system: mouse RANKL VDRE; experiment: RANKL VDRE in TK promoter, luciferase reporter in ST2 cells; assay type: cell-based
Source text: FIG. 8. The mouse RANKL VDRE is inducible by 1,25(OH)2D3. The mouse RANKL VDRE (sequence seen in FIG. 7) was cloned into the TK promoter, transfected into ST2 cells and evaluated for transcriptional regulation by 1,25(OH)2D3. A 10 to 15-fold induction mediated by the RL VDRE is observed. A similar induction is observed in the context of the RL minimal promoter. Data are the average of triplicate determinations, SEM.
ChIP data are of inherent low resolution, making it difficult to identify the specific sequence to which the VDR/RXR heterodimer binds within the RL-CCL. 1,25(OH)2D3-inducibility of the RL-CCL DNA fragment, however, provides the opportunity to precisely map the location of the VDRE using mutagenesis. The inventors therefore subjected the RL-CCL DNA fragment to 5′ deletion analysis using PCR and prepared a series of fragments of the RL-CCL with increasingly fore-shortened 5′ termini as illustrated in FIG. 7a. These RANKL gene fragments were similarly cloned into the pTK-luc vector and their activities together with the wildtype D5 fragment examined in response to 1,25(OH)2D3, glucocorticoids and the combination following transfection into ST2 cells. […] As well, this region of the RL-CCL also contains a number of consensus GR binding half-sites, and at least one consensus GRE duplex site.

[3] = test system: RANKL; experiment: RT-PCR of RANKL in MG-63 cells; assay type: cell-based, human
Protocol: FIG. 14. […] Cells were treated with the indicated inducers for the periods identified and isolated RNA subjected to PCR analysis for Cyp24, RANKL and b-actin. B) 1,25(OH)2D3 induces VDR binding to the conserved D5 region of the human RANKL gene in MG-63 cells. […] Two different primer sets to the human D5 region were used to assess VDR binding. VDR binding was also observed at D3-D1 but not in intervening regions or at the TSS. C) The human D5 region is transcriptionally active in MG-63 cells. […] Luciferase activity was analysed 24 hours later. […] Data are the average of triplicate determinations, SEM.
The isolated RNA was then subjected to RT-PCR analysis using primers to a control gene (β-actin), a known vitamin D induced gene (Cyp24) and RANKL. […] These and additional data using other hormonal regulators are identical to that observed in mouse cells and it therefore appears likely that human RANKL is regulated in a fashion similar to that in mouse.

## C=C1/C(=C\C=C2/CCC[C@]3(C)[C@@H]([C@H](C)CCCC(C)(C)O)CC[C@@H]23)C[C@@H](O)C[C@@H]1O [1,25(OH)2D3]
[1]
  CREB binding to the D5 region: modestly increased CREB association
  RNA pol II recruitment to D1-D5 sites and TSS: recruited
  Stat3 binding to the D5 region: some Stat3 binding can be seen
[1]; ChIP, -16, -22, -60, -69, -77 kb from TSS
  VDR and RXR binding at D1-D5: clearly enriched
[1]; agent alone
  VDR binding to RANKL regulatory regions (D5): induced the binding of the VDR
[2]
  induction mediated by the RL VDRE: 10 to 15 fold
[3]
  RANKL expression (RT-PCR): upregulated
